Test results: ChEMBL document CHEMBL1143998, “Binding to human serum albumin of zidovudine (AZT) and novel AZT derivatives. Experimental and theoretical analyses” (Bioorg Med Chem, 2008)

Assays:
Format in all cases: ADME
Details in all cases: isolated protein
[1] = target: T1, Albumin (Homo sapiens, UniProt P02768); test: Binding affinity to fatty acid complexed human serum albumin
[2] = target: T1, Albumin; test: Binding affinity to defatted human serum albumin relative to zidovudine
[3] = target: T1, Albumin; test: Binding affinity to defatted human serum albumin in presence of salicylic acid
[4] = target: T1, Albumin; test: Binding affinity to defatted human serum albumin

T1 sequence (P02768 whole entry): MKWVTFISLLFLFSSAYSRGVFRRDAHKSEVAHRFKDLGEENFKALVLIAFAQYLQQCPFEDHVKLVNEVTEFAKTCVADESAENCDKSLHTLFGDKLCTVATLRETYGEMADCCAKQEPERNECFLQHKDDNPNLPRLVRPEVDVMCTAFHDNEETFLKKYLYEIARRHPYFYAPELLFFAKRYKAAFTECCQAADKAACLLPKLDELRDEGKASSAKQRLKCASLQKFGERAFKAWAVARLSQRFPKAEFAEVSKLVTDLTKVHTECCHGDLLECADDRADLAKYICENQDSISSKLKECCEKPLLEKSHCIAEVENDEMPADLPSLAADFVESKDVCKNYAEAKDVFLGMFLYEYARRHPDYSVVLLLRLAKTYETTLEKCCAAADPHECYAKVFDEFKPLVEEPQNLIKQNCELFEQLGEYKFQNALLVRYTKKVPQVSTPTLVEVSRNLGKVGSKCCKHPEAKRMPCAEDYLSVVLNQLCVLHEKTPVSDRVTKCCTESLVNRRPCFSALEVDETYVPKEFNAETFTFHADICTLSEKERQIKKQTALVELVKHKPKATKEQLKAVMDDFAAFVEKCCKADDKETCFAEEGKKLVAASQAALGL

Cc1cn([C@H]2C[C@H](N=[N+]=[N-])[C@@H](COC(=O)C(=O)O)O2)c(=O)[nH]c1=O gave an Activity [1] of 10.4%, a Ka [1] of 811.7 L/mol and an Activity [2] of 5.93. The Activity [3] was 7%, the Ka [3] was 604.5 L/mol and the Activity [4] was 47%. The Ka [4] was 6201.3 L/mol.

In the case of Cc1cn([C@H]2C[C@H](N=[N+]=[N-])[C@@H](COC(=O)C(=O)N3CCC[C@H]3C(=O)O)O2)c(=O)[nH]c1=O, the Activity [1] is reported as 16.1%, the Ka [1] is reported as 1341.9 L/mol and the Activity [2] is reported as 0.9. The Activity [3] was 9.4%, the Ka [3] was 811.7 L/mol and the Activity [4] was 11.9%. The Ka [4] was 944.6 L/mol.

Molecule Cc1cn([C@H]2C[C@H](N=[N+]=[N-])[C@@H](COC(=O)c3ccncc3)O2)c(=O)[nH]c1=O has an Activity [1] of 38.8%, a Ka [1] of 3277.3 L/mol and an Activity [2] of 1.64. For the same molecule, the Activity [4] was 19.8% and the Ka [4] was 1709.8 L/mol.

Work on Cc1cn([C@H]2C[C@H](N=[N+]=[N-])[C@@H](COC(=O)C(=O)N[C@@H](Cc3ccc(O)cc3)C(=O)O)O2)c(=O)[nH]c1=O yielded an Activity [1] of 10.4%, a Ka [1] of 890.9 L/mol and an Activity [2] of 1.17. It also gave an Activity [3] of 9.4%, a Ka [3] of 811.7 L/mol and an Activity [4] of 14.9%. It also gave a Ka [4] of 1224.4 L/mol.

With Cc1cn([C@H]2C[C@H](N=[N+]=[N-])[C@@H](COC(=O)C(=O)N[C@H](C(=O)O)C(C)C)O2)c(=O)[nH]c1=O the Activity [1] was 11.9%, the Ka [1] was 944.6 L/mol and the Activity [2] was 1.47. It also gave an Activity [3] of 15.2%, a Ka [3] of 1312.6 L/mol and an Activity [4] of 17.4%. It also gave a Ka [4] of 1535 L/mol.

Cc1cn([C@H]2C[C@H](N=[N+]=[N-])[C@@H](COC(=O)C(=O)N[C@@H](Cc3c[nH]c4ccccc34)C(=O)O)O2)c(=O)[nH]c1=O was tested, and the Activity [1] was 23.7%, the Ka [1] was 2172.1 L/mol and the Activity [2] was 1.73. It also gave an Activity [3] of 17.6%, a Ka [3] of 1519.8 L/mol and an Activity [4] of 20.5%. For the same molecule, the Ka [4] was 1803.2 L/mol.

Work on Cc1cn([C@H]2C[C@H](N=[N+]=[N-])[C@@H](COC(=O)C(=O)N[C@@H](Cc3ccccc3)C(=O)O)O2)c(=O)[nH]c1=O yielded an Activity [1] of 5.5%, a Ka [1] of 436.6 L/mol and an Activity [2] of 1.12. It also gave an Activity [3] of 8.3%, a Ka [3] of 716.7 L/mol and an Activity [4] of 13.6%. The Ka [4] was 1174.4 L/mol.

In the case of CC[C@H](C)[C@H](NC(=O)C(=O)OC[C@H]1O[C@@H](n2cc(C)c(=O)[nH]c2=O)C[C@@H]1N=[N+]=[N-])C(=O)O, the Activity [1] is reported as 7.6%, the Ka [1] is reported as 575.2 L/mol and the Activity [2] is reported as 3.6. For the same molecule, the Activity [3] was 4.6%, the Ka [3] was 397.2 L/mol and the Activity [4] was 35.2%. For the same molecule, the Ka [4] was 3765.4 L/mol.

Cc1cn([C@H]2C[C@H](N=[N+]=[N-])[C@@H](COC(=O)C(=O)N[C@@H](CC(C)C)C(=O)O)O2)c(=O)[nH]c1=O gave an Activity [1] of 8.9%, a Ka [1] of 683.2 L/mol and an Activity [2] of 2.35. It also gave an Activity [3] of 5.2%, a Ka [3] of 449 L/mol and an Activity [4] of 26.5%. It also gave a Ka [4] of 2457 L/mol.
